Experimental data: PMC9818021, “Targets, Mechanisms and Cytotoxicity of Half-Sandwich Ir(III) Complexes Are Modulated by Structural Modifications on the Benzazole Ancillary Ligand” (Cancers, 2022)

Tests used:
[1] = tested on: A549 cells; experiment: 8-OHdG DNA damage quantification; assay type: cell-based, human; conditions: 16 μM, 4 h
Method: (§1) DNA damage was measured using EpiQuik 8-OHdG DNA Damage Quantification Direct Kit (colorimetric) (Fischer, Waltham, MA, USA, P600396); The mitochondrial cytochrome C release was evaluated using the “Millipore’s FlowCellect Cytochrome C Kit (Millipore, FCCH100110)”. Lactate dehydrogenase activity release was measured in the culture medium using Cytotoxicity Detection Kit (Roche Diagnostic, Barcelona, Spain, 11 644 793 001). Protein synthesis was determined using Click-iT Plus O-propargyl-puromycin (OPP) Protein Synthesis Assay Kit (Invitrogen™, Waltham, MA, USA). Measurement of GSH/GSSG was determined with GSH/GSSG-Glo Assay (Promega, V6611). Measurements of OCR and ECAR with Seahorse XFp (Agilent Technologies) were determined using the XFp Cell Mito Stress Test Kit (103010-100) and XFp Glycolysis Stress Test Kit (103017-100). ATP measurement was determined with Cell Titer-Glo Luminescent Cell Viability Assay (Promega, Madison, WI, USA, G7570). Determination of DNA damage using phosphorylated H2AX measurement were performed as previously described. Cardiolipin oxidation using the fluorophore Nonyl Acridine Orange (NAO, Thermo Scientific, A1372) was performed as described. Cell viability was determined by Hoechst inclusion and Propidium iodide (PI) exclusion by standard protocols. TEM analysis were performed as described. […]

[2] = tested on: A549 cells; experiment: MTT viability with NAC pre-incubation; assay type: cell-based, human; conditions: NAC 10 mM 2 h pre-incubation, then 24 h
Method: Cytotoxicity. MTT Assay and IC50 estimation. The cytotoxicity of 1[C,NH-Cl], 2[C,NMe-Cl], 3[N,NH-Cl]Cl, 4[N,NMe-Cl]Cl, 5[CNH2,NH-Cl]Cl, 6[CNH2,S-Cl]Cl, 7[CO,NH-Cl] and 8[CO,S-Cl] in A2780, A2780cis, SW480 and A549 carcinoma cells was evaluated by the MTT colorimetric assay. Cells were seeded in 96-well plates at 5000 cells per well and incubated at 37 °C, 5% CO2. After 24 h, the medium was removed and replaced with fresh medium with different concentrations of the compounds under study, and they were incubated for 48 h. Final DMSO concentration was kept below 0.7% in wells. For a negative control, one sequence of cells was left untreated and for vehicle control, cells treated with DMSO were included. For cell viability experiments preincubating with NAC (N-Acetyl-L-Cysteine), the cells were pre-treated with NAC, 10 mM for 2 h before the incubation with complex 1[C,NH-Cl] for 24 h. Then, the medium was removed from the wells, and 100 µL MTT (5 mg/mL) was added. […] Cell growth inhibition was detected by measuring the absorbance of each well at 595 nm using a BioTek Cytation5 microplate reader. […] The percentage of survival cells was calculated using absorbance measurements compared with control and the IC50 estimation using Graph Pad Prism version 6.01.

[3] = tested on: A549 cells; experiment: Cardiolipin oxidation (NAO, flow cytometry); assay type: cell-based, human; conditions: 4 h
Method: as §1

[4] = tested on: A549 cells; experiment: Mitochondrial membrane potential (TMRM); assay type: cell-based, human; conditions: 16 µM, TMRM 50 nM
Method: Specific assays with 1[C,NH] complex were performed according to manufacturer’s instructions using the following reagents from Molecular Probes (Thermo Fisher Scientific): Measurements of ROS: Dihydroethidium (DHE, D11347) and 2′, 7′-dichlorodihydrofluorescein diacetate (H2DCFDA, D399); detection of caspases 3/7: CellEvent Caspase-3/7 Green Detection Reagent (C10423); Cell viability: Live/Dead Cell Imaging Kit (R37601); Analysis of cytosolic calcium concentration: Fluo3/AM (F23915); Analysis of MMP: Tetramethylrhodamine methyl ester perchlorate (TMRM, T668). RT-qPCR’s assays were performed with the following primers/probes from Thermo Fisher Scientific: DCP1A (Hs00218198-m1), FOSB (Hs00171851-m1), EGR1(Hs0015928-m1), ATF3 (Hs00231069-m1), DDIT3 (Hs00358796-g1), PP1R15A (Hs00169585-m1), CHAC1(Hs00225520-m1), MIR9-1 (Hs04231512-s1), ATP1B2 (Hs00155922-m1), BBC3 (Hs00248075-m1), BCL2L11 (Hs00798019-s1), PMAIP1 (Hs00560402-m1), SKP2 (Hs01021864-m1) and HIST1H1B (Hs00271207-s1). RT-qPCR experiments were performed as described.

[5] = tested on: CHOP; experiment: CHOP induction (CHOP::GFP plasmid); assay type: cell-based, human; conditions: HEK293, 9.7 µM, 24 h time-lapse
Method: CHOP induction. HEK293 cells were seeded at 8 × 10^5 cell/well in 24-well plates and transfected with CHOP::GFP plasmid (Addgene plasmid #21898; http://n2t.net/addgene:21898; RRID:Addgene_21898, 10 November 2022) using the transfection reagent DreamFectTM Gold (OZ Bioscience, Cat. N. º LM80250). After 24 h incubation, the treatments were added: 1[C,NH] 9.7 µM; tunicamycin 0.5 µM as positive control. Cells were stained with propidium iodide (1 µg/mL). Time-lapse images were acquired every 30 min for 24 h.

[6] = tested on: BALB/c mice; experiment: Acute toxicity in healthy mice; assay type: in vivo, mouse; conditions: dissolved in PBS
Source text: Female mice weighing approximately 20–25 g, 8–12 weeks were obtained from Janvier Laboratories (Le Genest-Saint-Isle, France). All mice received a standard laboratory diet and water ad libitum. The use of immunosuppressed animals is always a limitation since they are not a true reflection of an animal with a functional immune system and, therefore, can affect both the toxicological response and the biodistribution of a compound, but they are essential to be able to implant human tumor cells, otherwise the tumor would be rejected by the immune system. Therefore, in order to analyze the biodistribution, toxicology and efficacy of a compound against a tumor, it is necessary to use different animals. Animal studies were approved by the Bioethics Committee of the Universidade de Santiago de Compostela and were done in compliance with the principles of laboratory animal care according to Spanish national law (RD 53/2013).

[7] = Stopped flow kinetics of DMSO substitution by OH-; assay type: physicochemical
Method: The slow kinetic measurements were performed with the previous spectrophotometer while the fast kinetic measurements were performed in a stopped flow Bio-Logic SFM-300 spectrophotometer with an absorbance detection system and dead time below 3 ms. The kinetic curves, obtained averaging out at least five shots, were analysed with the Jandel (AISN software, Mapleton, OR) fitting package.

SMILES | 8-OHdG levels [1] | Rescue of cytotoxicity by NAC [2] | Cardiolipin oxidation [3] | Mitochondrial membrane potential (MMP) [4] | CHOP expression [5] | Maximum tolerated dose [6] | k (substitution of DMSO by OH-) ([7]; pH = 10.2) | k (substitution of DMSO by OH-) ([7]; pH = 11.5)
Cc1c(C)c(C)[c-](C)c1C.[Cl][Ir]1[c]2ccccc2-c2[nH]c3ccccc3[n+]21 [1[C,NH], [(η^5-Cp*)IrCl(κ^2-N,C-pbim)]] | increased after 4 h | partial rescue | induced CL oxidation | quick and deep dissipation of MMP | increased expression | 1.3 mg/kg | – | –
Cc1c(C)c(C)[c-](C)c1C.[Cl][Ir]1[O]c2ccccc2-c2sc3ccccc3[n+]21 [8[CO,S], [(η^5-Cp*)IrCl(κ^2-O,N-hpbtz)]] | – | – | – | – | – | – | 39 s⁻¹ | 112 s⁻¹
